Where a name gives a salt, the structure may show the parent alone. Bounds are passed on as bounds.

The values that follow come from US5608069A, “1-substituted, 3-carboxylic acid piperidine derivatives” (Novo Nordisk A/S, priority 1993, dated 1997).

The test system of data set [1] is [^3 H]-GABA uptake. The data set is described as follows: in vitro inhibition of [^3 H]-GABA uptake (rat cortical tissue homogenate). The note with it: tris HCl buffer pH 7.5, 60 minutes at 30° C. It is filed as biochemical, Male wistar rat. The method, then:
Values for in vitro inhibition of [^3 H]-GABA uptake for the invention compounds were assessed essentially by the method of Fjalland (Acta Pharmacol. Toxicol. 1978, 42, 73-76). Male wistar rat cortical tissue was gently homogenized by hand using a glass/PTFE homogenizer in 10 volumes of 0.32M sucrose. Incubation was performed in a 40 mM tris HCl buffer (pH 7.5 at 30° C.) containing […], 4 mM MgSO4, […] and 10 mM glucose, for 60 minutes at 30° C. Values for inhibition of GABA uptake for some representative compounds are recorded in Table I.

For data set [2], the system named is GABA uptake. The note with it: cited from earlier work; for orally active inhibition of GABA uptake (in words): Yunger, L. M. et al., 1984, Krogsgaard-Larsen, P. et al., 1987, oral.
For data set [3] the following is noted: relatively polar compound; cited from earlier work.

As usually defined, the IC50 is the point on the concentration scale where inhibition reaches its midpoint. The low end stands for greater potency, the high end for weaker potency. With `Cc1ccccc1/C=N/OCCN1CCC[C@@H](C(=O)O)C1` [Example 1, E-(R )-1-(2-((((2-Methylphenyl)methylene)amino)oxy)ethyl)-3-piperidinecarboxylic acid hydrochloride], in data set [1], the IC50 is over 9000 nM.

In data set [1], `CC(C)C=C(C=NOCCN1CCC[C@@H](C(=O)O)C1)c1ccccc1` [Example 2] came in with an IC50 of 236 nM.

Take `CCCCCCC/C(=N/OCCN1CCC[C@@H](C(=O)O)C1)c1ccccc1` [Example 3, Z-(R)-1-(2-(((1-Phenyl-1-octanylidene)amino)oxy)ethyl)-3-piperidinecarboxylic acid hydrochloride]: in data set [1], half-maximal inhibition (IC50) was put at 2200 nM.

Consider `CCCCCCC/C(=N\OCCN1CCC[C@@H](C(=O)O)C1)c1ccccc1` [Example 4, E-(R)-1-(2-(((1-Phenyl-1-octanylidene)amino)oxy)ethyl)-3-piperidinecarboxylic acid hydrochloride], for which the IC50 in data set [1] worked out at 1100 nM.

On to `COC/C(=N\OCCN1CCC[C@@H](C(=O)O)C1)c1ccccc1` [Example 5, Z-(R)-1-(2-(((2-Methoxy-1-phenyl-1-ethylidene)amino)oxy)ethyl)-3-piperidinecarboxylic acid hydrochloride], for which the IC50 in data set [1] was 2000 nM.

`O=C(O)[C@@H]1CCCN(CCO/N=C(/c2ccccc2)C(F)(F)F)C1` [Example 6, Z-(R)-1-(2-(((1-Phenyl-2,2,2-trifluoro-1-ethylidene)amino)oxy)ethyl)-3-piperidinecarboxylic acid hydrochloride]: in data set [1], the IC50 is 4500 nM.

`O=C(O)C1CCCN(CCC=C(c2ccccc2)c2ccccc2)C1` (stereo not drawn) [SK&F 89976A, N-(4,4-diphenyl-3-buten-1-yl)nipecotic acid]: the “orally active inhibition of GABA uptake (in words)” value (from here on “orally active inhibition”) in data set [2] is listed as “orally active inhibitors of GABA uptake”.

As for `O=C(O)C1=CCCN(CCC=C(c2ccccc2)c2ccccc2)C1` [SK&F 100330A, N-(4,4-diphenyl-3-buten-1-yl)guvacine], in data set [2], the “orally active inhibition” value is on record as “orally active inhibitors of GABA uptake”.

For `O=C(O)CC1CCN(CCC=C(c2ccccc2)c2ccccc2)C1` (stereo not drawn) [SK&F 100561, N-(4,4-diphenyl-3-buten-1-yl)-homo-β-proline], in data set [2], the “orally active inhibition” value is recorded as “orally active inhibitors of GABA uptake”.

With `O=C(O)C1CCCN(CCC=C(c2ccccc2)c2cccs2)C1` (stereo not drawn) [SK&F 100604J, N-(4-phenyl-4-(2-thienyl)-3-buten-1-yl)nipecotic acid], in data set [2], the “orally active inhibition” value is “orally active inhibitors of GABA uptake”.

As to `O=C(O)C1CCCNC1` (stereo not drawn) [nipecotic acid, 3-piperidinecarboxylic acid], the “ability to cross the blood-brain barrier (in words)” value in data set [3] is recorded as “unable to cross the blood-brain barrier”. Moreover, in data set [2] (from the synaptic cleft into presynaptic nerve terminals and glial cells), the “inhibition of GABA uptake (in words)” value is “well-known and potent inhibitor of GABA uptake”.
